From article PMC6096703, “Pharmacokinetic drug interaction and safety after coadministration of clarithromycin, amoxicillin, and ilaprazole: a randomised, open-label, one-way crossover, two parallel sequences study” (European Journal of Clinical Pharmacology, 2018)

What was measured:
[1] = in vivo
Procedure: (§1) This was a randomised, open-label, one-way crossover, two parallel sequences study. A total of 32 subjects were randomised and assigned to one of the two parts. Subjects assigned to part 1 received a single dose of ilaprazole (Noltec Tab., IL-YANG Pharmaceutical Co.) 10 mg in the first period. Then, after a washout period of 10 days, clarithromycin (Klaricid Film Coated Tab., Abbott Korea) 500 mg and amoxicillin (Amoxicillin Cap. 500 mg Chongkundang, Chong Kun Dang Pharmaceutical Co., Korea) 1000 mg were administered twice daily for 6 days in the second period. Ilaprazole 10 mg was coadministered with clarithromycin and amoxicillin on the day 5 of the second period.
(§2) Subjects assigned to part 2 received single doses of both clarithromycin 500 mg and amoxicillin 1000 mg in the first period; after a washout period of 10 days, ilaprazole 10 mg was administered twice daily for 6 days in the second period. Clarithromycin 500 mg and amoxicillin 1000 mg were coadministered with ilaprazole on the day 5 of the second period (Fig. 1).
(§3) Serial blood samples were collected in anti-coagulated EDTA-K2 tubes at 0 (pre-dose), 1, 2, 2.5, 3, 3.5, 4, 4.5, 5, 6, 8, 12, 24, and 48 h after dosing of ilaprazole in part 1. The PK sampling points in part 2 were 0 (pre-dose), 0.5, 0.75, 1, 1.5, 2, 2.5, 3, 4, 6, 8, 12, 24, and 48 h after dosing of clarithromycin and amoxicillin. Blood sampling points were determined considering the time to reach peak concentration (Tmax) and elimination half-life (t1/2) of ilaprazole, clarithromycin, and amoxicillin [9, 10, 20]. Plasma concentrations of ilaprazole, clarithromycin, and amoxicillin were analysed using liquid chromatography-tandem mass spectrometry (LC-MS/MS). Samples were centrifuged for 10 min under 4 °C at 2000×g and stored below − 70 °C until analysis.
(§4) For the analysis of ilaprazole, 100 μL of plasma was added to polypropylene tubes and mixed with 10 μL of the internal standard (omeprazole) solution and 1 mL of acetonitrile. The mixture was vortexed for 1 min and centrifuged for 5 min at 11,337×g. The supernatant (100 μL) was collected and reconstituted with 600 μL of mobile phase. The supernatant (2 μL) was then injected into an LC-MS/MS system. An LC system (Shiseido Nanospace SI-2, Shiseido, Tokyo, Japan) was used with a mobile phase (10 mM ammonium formate/acetonitrile = 50/50 [v/v]) at 40 °C. Chromatographic separation was performed at a flow rate of 0.25 mL/min. The transition of ilaprazole was detected at m/z 367.0 to 184.2 by using an MS/MS system (API4000®, AB SCIEX, Washington DC, USA) in the multiple reaction monitoring (MRM) mode with a positive electrospray ionisation (ESI) source. The calibration curve was linear over the range of 5–1000 ng/mL, and the correlation coefficient (r) was > 0.995.
(§5) For the analysis of clarithromycin, 100 μL of plasma was added to polypropylene tubes and mixed with 10 μL of the internal standard (clarithromycin-N-methyl-^13C, d3) solution and 500 μL of acetonitrile. The mixture was vortexed for 1 min and centrifuged for 5 min at 11,337×g. The supernatant (50 μL) was collected and reconstituted with 1000 μL of 50% acetonitrile. The supernatant (3 μL) was then injected into the LC-MS/MS system. The LC system was used with a mobile phase (10 mM ammonium formate/acetonitrile = 20/80 [v/v]) at 40 °C. Chromatographic separation was performed at a flow rate of 0.2 mL/min. The transition of clarithromycin was detected at m/z 748.4 to 590.4 using an MS/MS system (4000QTRAP, AB SCIEX, Washington DC, USA) in the MRM mode with a positive ESI source. The calibration curve was linear over the range of 10–7000 ng/mL, and the correlation coefficient (r) was > 0.995.
(§6) For the analysis of amoxicillin, 100 μL of plasma was added to polypropylene tubes and mixed with 10 μL of internal standard (amoxicillin-d4) solution and 500 μL of acetonitrile. The mixture was vortexed for 1 min and centrifuged for 5 min at 11,337×g.

[2] = design: method as in PMID 16231964; conditions: cited from earlier work
clinical = conditions: male, human, in vivo, t1/2
Procedure: as §1, §2, §3, §4, §5, §6

[3] = Pharmacokinetic assessment of plasma concentrations (LC-MS/MS, non-compartmental analysis) after mono/dual and triple therapy; conditions: for AUC(0-inf) / AUC(0-t) / Cmax / Vd/F / Tmax / half-life: male, human, plasma; for AUC(0-inf) / AUC(0-t) / Cmax / Vd/F / half-life: oral; for Tmax: po, median (min–max)
Procedure: as §1, §2, §3, §4, §5, §6

[4] = Safety assessment: adverse events and adverse drug reactions; assay type: in vivo, healthy Korean male volunteers; conditions: Part I
Procedure: Safety and tolerability were evaluated throughout the study. The assessments included monitoring of all adverse events (AEs) based on physical examinations, vital signs, 12-lead ECG, routine haematology, serum chemistry, and urinalysis. The subjects were instructed to notify the study physicians or nurses of any AEs that occurred during the study. All AEs reported by subjects or detected in the assessments were recorded, and the investigators determined their relationship to the treatment. The severity of the AEs was evaluated based on the Common Terminology Criteria for Adverse Events (CTCAE, version 4.03).

[5] = AUCinf, dual therapy, period 1 of part 2, N = 15, arithmetic mean (SD)
[6] = AUCinf, geometric least square mean, dual therapy, period 1 of part 2, N = 15
[7] = AUCinf, geometric least square mean, triple therapy, period 2 of part 2, N = 15
[8] = AUCinf, triple therapy, period 2 of part 2, N = 15, arithmetic mean (SD)
[9] = AUClast, dual therapy, period 1 of part 2, N = 15, arithmetic mean (SD)
[10] = AUClast, geometric least square mean, dual therapy, period 1 of part 2, N = 15
[11] = AUClast, geometric least square mean, triple therapy, period 2 of part 2, N = 15
[12] = AUClast, triple therapy, period 2 of part 2, N = 15, arithmetic mean (SD)
[13] = dual therapy, period 1 of part 2, N = 15, arithmetic mean (SD)
[14] = geometric least square mean, dual therapy, period 1 of part 2, N = 15
[15] = geometric least square mean, triple therapy, period 2 of part 2, N = 15
[16] = triple therapy, period 2 of part 2, N = 15, arithmetic mean (SD)
[17] = clarithromycin 500 mg + amoxicillin 1000 mg oral single dose (dual therapy, period 1 of part 2), N = 15
[18] = clarithromycin 500 mg + amoxicillin 1000 mg oral with ilaprazole 10 mg (triple therapy, day 5 of period 2, part 2), N = 15
[19] = ilaprazole in triple therapy, period 2 of part 1, N = 13, arithmetic mean (SD)
[20] = 10 mg, ilaprazole monotherapy, period 1 of part 1, N = 13, arithmetic mean (SD)

For `CC1(C)S[C@@H]2[C@H](NC(=O)[C@H](N)c3ccc(O)cc3)C(=O)N2[C@H]1C(=O)O` [Amoxicillin, amoxicillin], the “Plasma amoxicillin concentrations at 48 h after study drug administration” value [1] was “not detected”, the “AUCinf GMR (90% CI), triple therapy/dual therapy” value ([1]; male, human) was 0.99 (0.83–1.17) and the “AUClast GMR (90% CI), triple therapy/dual therapy” value ([1]; male, human) was 0.98 (0.83–1.16). The t1/2 ([1]; male, human) was 1.96 (3.26) h, the bioavailability [2] was 89–98% and the half-life (clinical) was 1.18 h. It also gave an AUC(0-inf) [3, 5] of 28500 ng·h/mL, an AUC(0-inf) [3, 6] of 27200 ng·h/mL and an AUC(0-inf) [3, 7] of 26900 ng·h/mL. The AUC(0-inf) [3, 8] was 27400 ng·h/mL, the AUC(0-t) [3, 9] was 27900 ng·h/mL and the AUC(0-t) [3, 10] was 26700 ng·h/mL. For the same compound, the AUC(0-t) [3, 11] was 26200 ng·h/mL, the AUC(0-t) [3, 12] was 26700 ng·h/mL and the Cmax [3, 13] was 9370 ng/mL. The Cmax [3, 14] was 9140 ng/mL, the Cmax [3, 15] was 7910 ng/mL and the Cmax [3, 16] was 8140 ng/mL. The Vd/F [3, 13] was 64.7 L, the Vd/F [3, 16] was 95.1 L and the Tmax [3, 17] was 1.5 h. It also gave a Tmax [3, 18] of 2 h.

For `CC[C@H]1OC(=O)[C@H](C)[C@@H](O[C@H]2C[C@@](C)(OC)[C@@H](O)[C@H](C)O2)[C@H](C)[C@@H](O[C@@H]2O[C@H](C)C[C@H](N(C)C)[C@H]2O)[C@](C)(OC)C[C@@H](C)C(=O)[C@H](C)[C@@H](O)[C@]1(C)O` [Clarithromycin, clarithromycin], the CL/F [3, 13] was 36.6 (12.7) L/h, the AUC(0-inf) [3, 5] was 15000 ng·h/mL and the AUC(0-inf) [3, 6] was 14400 ng·h/mL. For the same compound, the AUC(0-inf) [3, 7] was 15700 ng·h/mL, the AUC(0-inf) [3, 8] was 16900 ng·h/mL and the AUC(0-t) [3, 9] was 14600 ng·h/mL. It also gave an AUC(0-t) [3, 10] of 14000 ng·h/mL, an AUC(0-t) [3, 11] of 15300 ng·h/mL and an AUC(0-t) [3, 12] of 16500 ng·h/mL. It also gave a Cmax [3, 13] of 1870 ng/mL, a Cmax [3, 14] of 1770 ng/mL and a Cmax [3, 15] of 1590 ng/mL. It also gave a Cmax [3, 16] of 1720 ng/mL, a Vd/F [3, 13] of 247 L and a Vd/F [3, 16] of 230 L. The half-life ([3]; t1/2, dual therapy, period 1 of part 2, N = 15, arithmetic mean (SD)) was 4.84 h, the half-life ([3]; t1/2, triple therapy, period 2 of part 2, N = 15, arithmetic mean (SD)) was 4.83 h and the Tmax [3, 17] was 2 h. The Tmax [3, 18] was 2.5 h and the CL/F [3, 16] was 34.4 (15.1) L/h.

With `COc1ccnc(C[S+]([O-])c2nc3cc(-n4cccc4)ccc3[nH]2)c1C` (centres unmarked) [Ilaprazole, ilaprazole] the “Subjects with adverse drug reactions” value [4] was “no drug-related AE”, the “Subjects with any adverse event” value [4] was 5 (31.3) number (%) of subjects and the CL/F [3, 19] was 3.04 (1.11) L/h. The CL/F ([3]; ilaprazole monotherapy, period 1 of part 1, N = 13, arithmetic mean (SD)) was 3.28 (1.23) L/h, the AUC(0-inf) ([3]; 10 mg, AUCinf, geometric least square mean, ilaprazole monotherapy, period 1 of part 1, N = 13) was 3220 ng·h/mL and the AUC(0-inf) ([3]; 10 mg, AUCinf, ilaprazole monotherapy, period 1 of part 1, N = 13, arithmetic mean (SD)) was 3390 ng·h/mL. For the same compound, the AUC(0-t) ([3]; 10 mg, AUClast, geometric least square mean, ilaprazole monotherapy, period 1 of part 1, N = 13) was 3140 ng·h/mL, the AUC(0-t) ([3]; 10 mg, AUClast, ilaprazole monotherapy, period 1 of part 1, N = 13, arithmetic mean (SD)) was 3300 ng·h/mL and the Cmax ([3]; 10 mg, geometric least square mean, ilaprazole monotherapy, period 1 of part 1, N = 13) was 447 ng/mL. The Cmax [3, 20] was 479 ng/mL, the Vd/F [3, 20] was 19.5 L and the AUC(0-inf) ([3]; 10 mg, mean AUCinf, ilaprazole monotherapy) was 3390 ng·h/mL. It also gave an AUC(0-t) ([3]; 10 mg, mean AUClast, ilaprazole monotherapy) of 3300 ng·h/mL, a half-life ([3]; 10 mg, t1/2, ilaprazole monotherapy, period 1 of part 1, N = 13, arithmetic mean (SD)) of 4.16 h and an AUC(0-inf) ([3]; AUCinf, geometric least square mean, ilaprazole in triple therapy, period 2 of part 1, N = 13) of 3490 ng·h/mL. For the same compound, the AUC(0-inf) ([3]; AUCinf, ilaprazole in triple therapy, period 2 of part 1, N = 13, arithmetic mean (SD)) was 3680 ng·h/mL, the AUC(0-t) ([3]; AUClast, geometric least square mean, ilaprazole in triple therapy, period 2 of part 1, N = 13) was 3350 ng·h/mL and the AUC(0-t) ([3]; AUClast, ilaprazole in triple therapy, period 2 of part 1, N = 13, arithmetic mean (SD)) was 3540 ng·h/mL. It also gave a Cmax ([3]; geometric least square mean, ilaprazole in triple therapy, period 2 of part 1, N = 13) of 414 ng/mL, a Cmax [3, 19] of 446 ng/mL and a Vd/F [3, 19] of 20.4 L. For the same compound, the AUC(0-inf) ([3]; mean AUCinf, ilaprazole in triple therapy) was 3680 ng·h/mL, the AUC(0-t) ([3]; mean AUClast, ilaprazole in triple therapy) was 3540 ng·h/mL and the half-life ([3]; t1/2, ilaprazole in triple therapy, period 2 of part 1, N = 13, arithmetic mean (SD)) was 4.66 h. It also gave a Tmax ([3]; 10 mg, ilaprazole 10 mg oral single dose alone (monotherapy, period 1 of part 1), N = 13) of 3.5 h and a Tmax ([3]; ilaprazole 10 mg oral with clarithromycin 500 mg and amoxicillin 1000 mg (triple therapy, day 5 of period 2, part 1), N = 13) of 3 h.
